In US8318223B2, “Method for producing modified milk” (Ajinomoto Co., Inc., priority 2008, dated 2012):
Read-outs that look alike come from different tables or passages of the source.

Molecular target: T1, PG (Chryseobacterium proteolyticum, UniProt Q9AQQ8)
T1 construct: made in house
T1 sequence (Q9AQQ8 136-320): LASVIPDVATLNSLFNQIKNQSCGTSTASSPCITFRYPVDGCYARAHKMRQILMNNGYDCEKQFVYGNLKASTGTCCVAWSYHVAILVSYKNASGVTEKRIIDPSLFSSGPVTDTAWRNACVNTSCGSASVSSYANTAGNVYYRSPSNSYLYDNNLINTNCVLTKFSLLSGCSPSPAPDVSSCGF
Assay type: biochemical
Protocol: Calcium chelating materials were added to LTLT sterilized milk (66° C., 30 minutes: Takanashi low temperature sterilized milk) properly. The reactivity of PG with each milk sample was measured as follows. To each milk sample was added 0.4 U/ml (corresponding to about 12 u per 1 g of milk protein) of PG (a purified product described in Experimental Example 1) and incubated at 50° C. for 60 minutes. The enzyme reaction was ceased by adding 12% TCA the amount of which is the same as the reacting solution and centrifuged (12,000 rpm, 5° C., 5 minutes) to measure the amount of ammonium in the supernatant using an ammonium quantitative measurement kit, F-kit (Roche).
Alkaline materials were added to LTLT sterilized milk (66° C., 30 minutes: Takanashi low temperature sterilized milk) properly so as to adjust the pH 7 to 8.4. The reactivity of PG with each milk sample was measured as in Example 1.
Glutathione or cysteine (Nacalai Tesque, Inc.) as a thiol-type reducing agent was added to LTLT sterilized milk (66° C., 30 minutes: Takanashi low temperature sterilized milk) properly. The reactivity of PG to each milk was measured as in Example 1. […] By the same manner, the reactivity of PG to milk was measured by adding glutathione yeast extract (AROMILD UG8, Kohjin Co., Ltd.) to milk at different concentrations.

[1] = alkaline additive 0.20% in LTLT milk, control (pH 6.67) 13.6
[2] = alkaline additive 0.25% in LTLT milk, control (pH 6.67) 13.6
[3] = alkaline additive 0.30% in LTLT milk, control (pH 6.67) 13.6
[4] = alkaline additive […] in LTLT milk, control (pH 6.67) 13.6
[5] = additive 0.4% in LTLT milk, PG 0.4 U/ml, 50° C., 60 minutes, control 22.1
[6] = additive 0.5% in LTLT milk, PG 0.4 U/ml, 50° C., 60 minutes, control 22.1

Compound: N=C(N)NCCC[C@H](N)C(=O)O [Arg (amino acid), arginine]
- PG reactivity (%) [1]: 54.1%
- PG reactivity (%) [2]: 67%
- PG reactivity (%) [3]: 76.2%
- PG reactivity (%) (alkaline additive 0.40% in LTLT milk, control (pH 6.67) 13.6): 75%

Compound: O=C([O-])CN(CCN(CC(=O)[O-])CC(=O)[O-])CC(=O)[O-].[Na+].[Na+].[Na+].[Na+] [EDTA, tetrasodium ethylenediaminetetraacetate]
- PG reactivity (%) (additive 20 mM in LTLT milk, PG 0.4 U/ml, 50° C., 60 minutes, control 22.1): 55.9%

Compound: O=C([O-])[O-].[K+].[K+] [Potassium carbonate]
- PG reactivity (%) (alkaline additive 0.13% in LTLT milk, control (pH 6.67) 13.6): 62.5%

Compound: O=C([O-])[O-].[Na+].[Na+] [Sodium carbonate]
- PG reactivity (%) (alkaline additive 0.10% in LTLT milk, control (pH 6.67) 13.6): 61.7%
- PG reactivity (%) [1]: 65%
- PG reactivity (%) [4]: 72.7%

Compound: O=C([O-])O.[Na+] [Sodium hydrogen carbonate]
- PG reactivity (%) [3]: 58.1%
- PG reactivity (%) (alkaline additive 1.00% in LTLT milk, control (pH 6.67) 13.6): 57.8%

Compound: O=C([O-])CC(O)(CC(=O)[O-])C(=O)[O-].[Na+].[Na+].[Na+] [Trisodium citrate]
- PG reactivity (%) (additive 0.2% in LTLT milk, PG 0.4 U/ml, 50° C., 60 minutes, control 22.1): 40.5%
- PG reactivity (%) [5]: 47.3%
- PG reactivity (%) [6]: 42.8%

Compound: O=P([O-])([O-])[O-].[Na+].[Na+].[Na+] [Trisodium phosphate]
- PG reactivity (%) [1]: 65.8%
- PG reactivity (%) [2]: 72%
- PG reactivity (%) [4]: 54.9%

Compound: sodium γ-polyglutamate [γ-PGA]
- PG reactivity (%) [5]: 49.8%
- PG reactivity (%) [6]: 58.1%
- PG reactivity (%) (additive 0.75% in LTLT milk, PG 0.4 U/ml, 50° C., 60 minutes, control 22.1): 79.2%
- PG reactivity (%) (additive 1% in LTLT milk, PG 0.4 U/ml, 50° C., 60 minutes, control 22.1): 96.1%
